Experimental findings from paper PMC8026774 (Cellular and molecular neurobiology, 2020) are described below.

Targets include MOR-1 (untagged) (Mus musculus, UniProt P42866); MOR-TR-PK (Mus musculus, UniProt P42866, DEL387-398); MOR-1O (untagged) (Mus musculus, UniProt P42866); MOR-1O-PK (Mus musculus, UniProt P42866); MOR-1-PK (Mus musculus, UniProt P42866).
Common to all, as to assay: radioligand saturation binding, CHO membranes

`O=C(N[C@@H]1CC[C@@]2(O)[C@H]3Cc4ccc(O)c5c4[C@@]2(CCN3CC2CC2)[C@H]1O5)c1cccc(I)c1` [[^125I]IBNtxA]: the Kd at MOR-1 (untagged) stood at 130 ± 30 pM; on MOR-TR-PK, 100 ± 20 pM; on MOR-1O (untagged) it was 200 ± 70 pM; on MOR-1O-PK it was 240 ± 110 pM; at MOR-1-PK, 100 ± 10 pM.
